The results in this text go back to patent US9963464B2, “Macrocyclic compounds” (Bayer Pharma Aktiengesellschaft, priority 2014, dated 2018).

The structures appear in SMILES notation. Where two headings read alike, the source gives them in different places.

In one assay the target is T1, CDK2/CycE (Homo sapiens, UniProt P24941).
T1 construct: GST; purchased ProQinase GmbH (Freiburg, Germany); host or cells: insect cells (Sf9)
Nature of the assay: CDK2/CycE kinase assay (TR-FRET, Method 2a). It counts as biochemical. Particulars: 10 μM ATP. The text has this: 2a. CDK2/CycE Kinase Assay:
CDK2/CycE-inhibitory activity of compounds of the present invention was quantified employing the CDK2/CycE TR-FRET assay as described in the following paragraphs:
Recombinant fusion proteins of GST and human CDK2 and of GST and human CycE, expressed in insect cells (Sf9) and purified by Glutathion-Sepharose affinity chromatography, were purchased from ProQinase GmbH (Freiburg, Germany). As substrate for the kinase reaction biotinylated peptide biotin-Ttds-YISPLKSPYKISEG (C-terminus in amid form) was used which can be purchased e.g. from the company JERINI Peptide Technologies (Berlin, Germany).
For the assay 50 nl of a 100 fold concentrated solution of the test compound in DMSO was pipetted into a black low volume 384 well microtiter plate (Greiner Bio-One, Frickenhausen, Germany), 2 μl of a solution of CDK2/CycE in aqueous assay buffer [50 mM Tris/HCl pH 8.0, 10 mM MgCl2, 1.0 mM dithiothreitol, 0.1 mM sodium ortho-vanadate, 0.01% (v/v) Nonidet-P40 (Sigma)] were added and the mixture was incubated for 15 min at 22° C. to allow pre-binding of the test compounds to the enzyme before the start of the kinase reaction. […] The concentration of CDK2/CycE was adjusted depending of the activity of the enzyme lot and was chosen appropriate to have the assay in the linear range, typical concentrations were in the range of 130 ng/mL. The reaction was stopped by the addition of 5 μl of a solution of TR-FRET detection reagents (0.2 μM streptavidine-XL665 [Cisbio Bioassays, Codolet, France] and 1 nM anti-RB(pSer807/pSer811)-antibody from BD Pharmingen [#558389] and 1.2 nM LANCE EU-W1024 labeled anti-mouse IgG antibody [Perkin-Elmer, product no. AD0077]) in an aqueous EDTA-solution (100 mM EDTA, 0.2% (w/v) bovine serum albumin in 100 mM HEPES pH 7.5).
The resulting mixture was incubated 1 h at 22° C. to allow the formation of complex between the phosphorylated biotinylated peptide and the detection reagents. Subsequently the amount of phosphorylated substrate was evaluated by measurement of the resonance energy transfer from the Eu-chelate to the streptavidine-XL. Therefore, the fluorescence emissions at 620 nm and 665 nm after excitation at 350 nm was measured in a TR-FRET reader, e.g. a Rubystar (BMG Labtechnologies, Offenburg, Germany) or a Viewlux (Perkin-Elmer). The ratio of the emissions at 665 nm and at […] was taken as the measure for the amount of phosphorylated substrate. The data were normalised (enzyme reaction without inhibitor=0% inhibition, all other assay components but no enzyme=100% inhibition).
A general note: Time-resolved FRET reads energy transfer from a long-lived donor to a nearby acceptor.

The subject of the next assay is HeLa-MaTu-ADR cells. Nature of the assay: Proliferation assay HeLa-MaTu-ADR. Type of assay: cell-based, human. To be noted: 4 days, crystal violet, read-out: Inhibition of HeLa-MaTu-ADR cell proliferation IC50. The method, then:
(§1) Cultivated tumour cells (HeLa, human cervical tumour cells, ATCC CCL-2; NCI-H460, human non-small cell lung carcinoma cells, ATCC HTB-177; A2780, human ovarian carcinoma cells, ECACC #93112519; DU 145, hormone-independent human prostate carcinoma cells, ATCC HTB-81; HeLa-MaTu-ADR, multidrug-resistant human cervical carcinoma cells, EPO-GmbH Berlin; Caco-2, human colorectal carcinoma cells, ATCC HTB-37; B16F10, mouse melanoma cells, ATCC CRL-6475) were plated at a density of 5,000 cells/well (DU145, HeLa-MaTu-ADR), 3,000 cells/well (NCI-H460, HeLa), 2,500 cells/well (A2780), 1,500 cells/well (Caco-2), or 1,000 cells/well (B16F10) in a 96-well multititer plate in 200 μL of their respective growth medium supplemented 10% fetal calf serum. After 24 hours, the cells of one plate (zero-point plate) were stained with crystal violet (see below), while the medium of the other plates was replaced by fresh culture medium (200 μl), to which the test substances were added in various concentrations (0 μM, as well as in the range of 0.001-10 μM). The cells were incubated for 4 days in the presence of test substances. Cell proliferation was determined by staining the cells with crystal violet: the cells were fixed by adding 20 μl/measuring point of an 11% glutaric aldehyde solution for 15 minutes at room temperature. After three washing cycles of the fixed cells with water, the plates were dried at room temperature. The cells were stained by adding 100 μl/measuring point of a 0.1% crystal violet solution (pH 3.0). After three washing cycles of the stained cells with water, the plates were dried at room temperature. The dye was dissolved by adding 100 μl/measuring point of a 10% acetic acid solution. The extinction was determined by photometry at a wavelength of 595 nm. The change of cell number, in percent, was calculated by normalization of the measured values to the extinction values of the zero-point plate (=0%) and the extinction of the untreated (0 μm) cells (=100%). The IC50 values (inhibitory concentration at 50% of maximal effect) were determined by means of a 4 parameter fit. Non-adherent MOLM-13 human acute myeloid leukemia cells (DSMZ ACC 554) were seeded at a density of 5,000 cells/well in a 96-well multititer plate in 100 μL of growth medium supplemented 10% fetal calf serum. After 24 hours, cell viability of one plate (zero-point plate) was determined with the Cell Titre-Glo Luminescent Cell Viability Assay (Promega), while 50 μL of test compound containing medium was added to the wells of the other plates (final concentrations in the range of 0.001-1 μM and DMSO controls). Cell viability was assessed after 72-hour exposure with the Cell Titre-Glo Luminescent Cell Viability Assay (Promega). IC50 values (inhibitory concentration at 50% of maximal effect) were determined by means of a 4 parameter fit on measurement data which were normalized to vehicle (DMSO) treated cells (=100%) and measurement readings taken immediately before compound exposure (=0%).

For the next assay, the system named is Caco-2 cells. Nature of the assay: Proliferation assay Caco-2. To be noted: 4 days, crystal violet, read-out: Inhibition of Caco-2 cell proliferation IC50. It counts as cell-based, human. The method, then: as §1

As for `CCOC(=O)N=S(C)(=O)Cc1cc2nc(c1)OCCCOc1cc(F)ccc1-c1cc(ncc1F)N2` (racemic) [Example 20, (rac)-ethyl [{[15,19-difluoro-3,4-dihydro-2H,11H-10,6-(azeno)-12,16-(metheno)-1,5,11,13-benzodioxadiazacyclooctadecin-8-yl]methyl}(methyl)oxido-λ^6-sulfanylidene]carbamate], the IC50 against CDK2/CycE was found to be 0.0117 µM; with HeLa-MaTu-ADR cells (Homo sapiens, 96 h) it was 0.03 µM; in the assay with Caco-2 cells (Homo sapiens, Caco-2, 96 h) it was 0.024 µM.

With `CS(=O)(Cc1cc2nc(c1)OCCCOc1cc(F)ccc1-c1cc(ncc1F)N2)=NC(=O)OCCCl` (racemic) [Example 21, (rac)-2-chloroethyl [{[15,19-difluoro-3,4-dihydro-2H,11H-10,6-(azeno)-12,16-(metheno)-1,5,11,13-benzodioxadiazacyclooctadecin-8-yl]methyl}(methyl)oxido-λ^6-sulfanylidene]carbamate], the IC50 is 0.0116 µM on CDK2/CycE; 0.015 µM in the assay with HeLa-MaTu-ADR cells (Homo sapiens, 96 h); 0.016 µM in the assay with Caco-2 cells (Homo sapiens, Caco-2, 96 h).

For the compound `CS(=O)(=O)N=S(C)(=O)Cc1cc2nc(c1)OCCCOc1cc(F)ccc1-c1cc(ncc1F)N2` (racemic) [Example 22, (rac)-N-[{[15,19-difluoro-3,4-dihydro-2H,11H-10,6-(azeno)-12,16-(metheno)-1,5,11,13-benzodioxadiazacyclooctadecin-8-yl]methyl}(methyl)oxido-λ^6-sulfanylidene]methanesulfonamide], the IC50 amounted to 0.0193 µM against CDK2/CycE; 0.02 µM in the assay on HeLa-MaTu-ADR cells (Homo sapiens, 96 h); 0.027 µM in the assay with Caco-2 cells (Homo sapiens, Caco-2, 96 h).

For the compound `CS(=O)(Cc1cc2nc(c1)OCCCOc1cc(F)ccc1-c1cc(ncc1F)N2)=NS(=O)(=O)CCN` (racemic) [Example 23, (rac)-2-amino-N-[{[15,19-difluoro-3,4-dihydro-2H,11H-10,6-(azeno)-12,16-(metheno)-1,5,11,13-benzodioxadiazacyclooctadecin-8-yl]methyl}(methyl)oxido-λ^6-sulfanylidene]ethanesulfonamide], the IC50 was 0.0302 µM against CDK2/CycE; 0.396 µM with HeLa-MaTu-ADR cells (Homo sapiens, 96 h); 0.422 µM with Caco-2 cells (Homo sapiens, Caco-2, 96 h).

As for `CS(=O)(Cc1cc2nc(c1)OCCCOc1cc(F)ccc1-c1cc(ncc1F)N2)=NS(=O)(=O)CCN.O=C(O)C(F)(F)F` (racemic) [Example 24, (rac)-2-{[{[15,19-difluoro-3,4-dihydro-2H,11H-10,6-(azeno)-12,16-(metheno)-1,5,11,13-benzodioxadiazacyclooctadecin-8-yl]methyl}(methyl)oxido-λ^6-sulfanylidene]sulfamoyl}ethanaminium trifluoroacetate], the IC50 against CDK2/CycE stood at 0.0135 µM; in the assay on HeLa-MaTu-ADR cells (trifluoroacetate), 0.21 µM; in the assay on Caco-2 cells (trifluoroacetate) it was 0.267 µM.

Take `CS(=O)(Cc1cc2nc(c1)OCCCOc1cc(F)ccc1-c1cc(ncc1F)N2)=NC(=O)OCCN` (racemic) [Example 25, (rac)-2-aminoethyl [{[15,19-difluoro-3,4-dihydro-2H,11H-10,6-(azeno)-12,16-(metheno)-1,5,11,13-benzodioxadiazacyclooctadecin-8-yl]methyl}(methyl)oxido-λ^6-sulfanylidene]carbamate]: the IC50 on CDK2/CycE is 0.0056 µM; with HeLa-MaTu-ADR cells (Homo sapiens, 96 h), 0.032 µM; in the assay on Caco-2 cells (Homo sapiens, Caco-2, 96 h) it was 0.047 µM.

As for `CS(=N)(=O)Cc1cc2nc(c1)OCCCOc1cc(F)ccc1-c1cc(ncc1F)N2` (single isomer, unassigned; enantiomer 1) [Example 6, 15,19-Difluoro-8-[(S-methylsulfonimidoyl)methyl]-3,4-dihydro-2H,11H-10,6-(azeno)-12,16-(metheno)-1,5,11,13-benzodioxadiazacyclooctadecine; Enantiomer 1], the IC50 turned out to be 0.0027 µM against CDK2/CycE; 0.005 µM with HeLa-MaTu-ADR cells (Homo sapiens, 96 h); 0.005 µM in the assay on Caco-2 cells (Homo sapiens, Caco-2, 96 h).

Take `CS(=N)(=O)Cc1cc2nc(c1)OCCCOc1cc(F)ccc1-c1cc(ncc1F)N2` (single isomer, unassigned; enantiomer 2) [Example 7, 15,19-Difluoro-8-[(S-methylsulfonimidoyl)methyl]-3,4-dihydro-2H,11H-10,6-(azeno)-12,16-(metheno)-1,5,11,13-benzodioxadiazacyclooctadecine; Enantiomer 2]: the IC50 came out at 0.0024 µM on CDK2/CycE, 0.005 µM in the assay on HeLa-MaTu-ADR cells and 0.006 µM with Caco-2 cells.

Regarding `CSCc1cc2cc(c1)OCCCOc1cc(F)ccc1-c1nc(ncc1F)N2` [Example 2, 15,19-Difluoro-8-[(methylsulfanyl)methyl]-3,4-dihydro-2H,11H-12,16-(azeno)-10,6-(metheno)-1,5,11,13-benzodioxadiazacyclooctadecine], the IC50 against CDK2/CycE was determined as 0.0978 µM; in the assay on HeLa-MaTu-ADR cells (Homo sapiens, 96 h) it was 0.077 µM; with Caco-2 cells (Homo sapiens, Caco-2, 96 h), 0.03 µM.

Regarding `CSCc1cc2nc(c1)OCCCOc1cc(F)ccc1-c1cc(ncc1F)N2` [Example 3, 15,19-Difluoro-8-[(methylsulfanyl)methyl]-3,4-dihydro-2H,11H-10,6-(azeno)-12,16-(metheno)-1,5,11,13-benzodioxadiazacyclooctadecine], the IC50 at CDK2/CycE was 0.041 µM; with HeLa-MaTu-ADR cells (Homo sapiens, 96 h), 0.07 µM; in the assay with Caco-2 cells (Homo sapiens, Caco-2, 96 h), < 0.03 µM.

Take `CS(=O)(=O)Cc1cc2nc(c1)OCCCOc1cc(F)ccc1-c1cc(ncc1F)N2` [Example 8, 15,19-difluoro-8-[(methylsulfonyl)methyl]-3,4-dihydro-2H,11H-10,6-(azeno)-12,16-(metheno)-1,5,11,13-benzodioxadiazacyclooctadecine]: the IC50 against CDK2/CycE was 0.005 µM; in the assay on HeLa-MaTu-ADR cells (Homo sapiens, 96 h), 0.009 µM; with Caco-2 cells (Homo sapiens, Caco-2, 96 h), 0.011 µM.

Consider `CSCc1cc2nc(c1)OCCCCOc1cc(F)ccc1-c1cc(ncc1F)N2` [Example 12, 16,20-Difluoro-9-[(methylsulfanyl)methyl]-2,3,4,5-tetrahydro-12H-11,7-(azeno)-13,17-(metheno)-1,6,12,14-benzodioxadiazacyclononadecine], for which the IC50 on CDK2/CycE was determined as 0.114 µM; in the assay on HeLa-MaTu-ADR cells (Homo sapiens, 96 h) it was 0.207 µM; with Caco-2 cells (Homo sapiens, Caco-2, 96 h) it was 0.061 µM.
